Measurements published in patent US6814960B1, “Hydroxystilbene compounds used as microbicidal active substances” (Ciba Specialty Chemicals Corporation, priority 1998, dated 2004).
Where two headings read alike, the source gives them in different places.

Key:
Type in all cases: cell-based
[1] = test system: Pseudomonas aeruginosa CIP A-22; assay: MIC value in microtitre plates (optical density); details: microtitre plate, CASO bouillon, 48 hours at 37° C., optical density 620 nm, ≦20% growth; some data indicative values
Description: (§1) Determination of the Minimum Inhibiting Concentration (MIC Value) in Microtitre Plates
(§2) Casein/soybean flour peptone bouillon for the preparation of the precultures of the test bacteria and yeast.
(§3) Mycological slant agar for the preculture of moulds.
(§4) Examples of Test Organisms
(§5) The test substances are predissolved in dimethyl sulfoxide (DMSO) and tested in a serial dilution of 1:2.
(§6) Bacteria and yeast are cultured overnight in CASO bouillon, the mould on mycological slant agar and rinsed off with 10 ml of 0.85% sodium chloride solution (+0.1% TritonX-100).
(§7) All test organisms are adjusted to an organism count of 1.5×10^6 CFU/ml with 0.85% sodium chloride solution.
(§8) The test substances are prepipetted into microtitre plates in an amount of 8 μl per well.
(§9) Previously diluted organism substances are diluted 1:100 in CASO bouillon (bacteria and yeast) and Sabouraud 2% glucose bouillon (mould) and added to the test substances in an amount of 192 μl per well.
(§10) The test batches are incubated for 48 hours at 37° C. (bacteria and yeast) or for 5 days at 28° C. (mould).
(§11) After incubation, the growth is determined by reference to the turbidity of the test batches (optical density) at 620 nm in a microplate reader.
(§12) The minimum inhibiting concentration (MIC value) is the concentration of substance at which (compared with the growth control) an appreciable inhibition of the growth (≦20% growth) of the test organisms is ascertained.
(§13) One microtiter plate is used for each test organism and substance concentration. All substances tested in duplicate.

[2] = test system: Aspergillus niger ATCC 6275; assay: MIC value in microtitre plates (optical density); details: microtitre plate, Sabouraud 2% glucose bouillon, 5 days at 28° C., optical density 620 nm, ≦20% growth; some data indicative values
Description: as §1, §2, §3, §4, §5, §6, §7, §8, §9, §10, §11, §12, §13

[3] = test system: Escherichia coli NCTC 8196; assay: MIC value in microtitre plates (optical density); details: microtitre plate, CASO bouillon, 48 hours at 37° C., optical density 620 nm, ≦20% growth; some data indicative values
Description: as §1, §2, §3, §4, §5, §6, §7, §8, §9, §10, §11, §12, §13

[4] = test system: Staphylococcus hominis DSM 20328; assay: MIC value in microtitre plates (optical density); details: microtitre plate, CASO bouillon, 48 hours at 37° C., optical density 620 nm, ≦20% growth; some data indicative values
Description: as §1, §2, §3, §4, §5, §6, §7, §8, §9, §10, §11, §12, §13

[5] = test system: Candida albicans ATCC 10231; assay: MIC value in microtitre plates (optical density); details: microtitre plate, CASO bouillon, 48 hours at 37° C., optical density 620 nm, ≦20% growth; some data indicative values
Description: as §1, §2, §3, §4, §5, §6, §7, §8, §9, §10, §11, §12, §13

[6] = test system: Pseudomonas aeruginosa CIP A-22; assay: MIC in the agar diffusion test; details: Mueller-Hinton agar, 24 hours at 37° C., solution in EtOH
Description: (§14) Determination of the Minimum Inhibiting Concentration (MIC) in the Agar Diffusion Test

[7] = test system: Aspergillus niger ATCC 6275; assay: MIC in the agar diffusion test; details: for MIC: Aspergillus niger, ATCC6275, 72 h, read-out: MIC A. niger
Description: as §14

[8] = test system: Escherichia coli NCTC 8196; assay: MIC in the agar diffusion test; details: for MIC: Escherichia coli, read-out: MIC E. coli
Description: as §14

[9] = test system: Staphylococcus aureus ATCC 9144; assay: MIC in the agar diffusion test; details: for MIC: Staphylococcus aureus, read-out: MIC S. aureus
Description: as §14

[10] = test system: Candida albicans ATCC 10231; assay: MIC in the agar diffusion test; details: for MIC: Candida albicans, read-out: MIC C. albicans
Description: as §14

[11] = test system: Corynebacterium xerosis ATCC 373; assay: MIC in the agar diffusion test; details: Mueller-Hinton agar, 24 hours at 37° C.; (103) solution in EtOH
Description: as §14

[12] = Sabouraud 4% glucose agar, 3 days at 28° C., (101) solution in EtOH, others in DMSO
[13] = Mueller-Hinton agar, 24 hours at 37° C., (101), (103) solution in EtOH, others in DMSO

Row | SMILES | MIC values P. aeruginosa [1] [ppm] | MIC values A. niger [2] [ppm] | MIC values E. coli [3] [ppm] | MIC values S. heminis [4] [ppm] | MIC values C. albicans [5] [ppm] | also measured
1 | CCOc1cc(/C=C/c2ccccc2C)ccc1O [Comp. of formula 171] | >100 | >100 | >100 | >100 | >100 | –
2 | COc1cc(/C=C/c2ccccc2C)ccc1O [Comp. of formula 172] | >100 | >100 | >100 | >100 | 10 | –
3 | Cc1ccccc1/C=C/c1ccccc1O [Comp. of formula 174] | >100 | 60 | 100 | 60 | 60 | –
4 | COc1cc(/C=C/c2ccccc2C)cc(O)c1OC [Comp. of formula 175] | 100 | 100 | 60 | 60 | 60 | –
5 | Cc1ccccc1/C=C/c1cccc(C)c1O [Comp. of formula 177] | >100 | 60 | 60 | 30 | 60 | –
6 | Cc1ccc(/C=C/c2ccc(O)cc2)cc1 [Comp. of formula 180] | >100 | >100 | >100 | 100 | >100 | –
7 | Cc1ccc(/C=C/c2cccc(O)c2)cc1 [Comp. of formula 181] | 100 | 30 | 15 | 15 | 15 | –
8 | COc1ccc(/C=C/c2ccc(C)cc2)cc1O [Comp. of formula 182] | >100 | >100 | >100 | >100 | >100 | –
9 | CCOc1cc(/C=C/c2ccc(C)cc2)ccc1O [Comp. of formula 183] | >100 | >100 | >100 | >100 | >100 | –
10 | COc1cc(/C=C/c2ccc(C)cc2)ccc1O [Comp. of formula 184] | >100 | 100 | >100 | >100 | >100 | –
11 | Cc1ccc(/C=C/c2ccccc2O)cc1 [Comp. of formula 186] | 100 | 60 | 30 | 30 | 30 | –
12 | COc1cc(/C=C/c2ccc(C)cc2)cc(O)c1OC [Comp. of formula 187] | >100 | >100 | >100 | >100 | >100 | –
13 | Cc1ccc(/C=C/c2cccc(C)c2O)cc1 [Comp. of formula 189] | >100 | >100 | 100 | >100 | >100 | –
14 | Oc1cc(O)cc(C=Cc2ccccc2)c1 [Compound of formula (101), 3,5-dihydroxystilbene] | – | – | – | – | – | MIC ([6]; Pseudomonas aeruginosa, CIPA22, read-out: MIC P. aeruginosa): 100 µg/mL; MIC [7, 12]: 100 µg/mL; MIC ([8]; NCTC8196, Mueller-Hinton agar, 24 hours at 37° C., (101), (103) solution in EtOH, (102) in DMSO): 100 µg/mL; MIC ([9]; ATCC9144, Mueller-Hinton agar, 24 hours at 37° C., (101), (103) solution in EtOH, others in DMSO): 100 µg/mL; MIC ([10]; ATCC10231, Mueller-Hinton agar, 24 hours at 37° C., (101), (103) solution in EtOH, others in DMSO): 100 µg/mL
15 | Oc1cccc(/C=C/c2ccccc2)c1 [Compound of formula (102), 3-hydroxystilbene] | – | – | – | – | – | MIC [7]: 10 µg/mL; MIC ([8]; NCTC8196, 24 h): 100 µg/mL; MIC ([9]; ATCC9144, 24 h): 100 µg/mL; MIC ([10]; ATCC10231, 24 h): 100 µg/mL
16 | Oc1ccc(/C=C/c2cc(O)cc(O)c2)cc1 [Compound of formula (103)] | – | – | – | – | – | MIC P. aeruginosa [6]: 600 ppm; MIC C. xerosis [11]: 100 ppm; MIC E. coli ([8]; Mueller-Hinton agar, 24 hours at 37° C., (101), (103) solution in EtOH, (102) in DMSO): 600 ppm; MIC S. aureus [9, 13]: 600 ppm; MIC C. albicans [10, 13]: 600 ppm
17 | CN(C)c1ccc(/C=C/c2ccccc2)cc1 [Compound of formula (104)] | – | – | – | – | – | MIC S. aureus [9, 13]: 300 ppm; MIC C. albicans [10, 13]: 600 ppm
18 | Oc1ccc(/C=C/c2ccc(Cl)cc2)cc1 [Compound of formula (106)] | – | – | – | – | – | MIC A. niger [7, 12]: 600 ppm; MIC S. aureus [9, 13]: 10 ppm
